# Data taken from PubChem BioAssay (NCI).
#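 Cultured in 96-well plates, cells were exposed to test compound for 48 hours across five concentrations. TGI is the concentration that stops growth completely.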
# Key:
# Assay in all cases: growth of human tumour cells (NCI), 48 h
# SW-620 colon = system: SW-620 colon
# UACC-257 melanoma = system: UACC-257 melanoma
# HL-60(TB) leukemia = system: HL-60(TB) leukemia
# K-562 leukemia = system: K-562 leukemia
# UACC-62 melanoma = system: UACC-62 melanoma
# SR leukemia = system: SR leukemia
# MOLT-4 leukemia = system: MOLT-4 leukemia
# OVCAR-5 ovarian = system: OVCAR-5 ovarian
# HCT-116 colon = system: HCT-116 colon
# COLO 205 colon = system: COLO 205 colon
# 786-0 renal = system: 786-0 renal
# HOP-92 NSCLC = system: HOP-92 NSCLC
# T-47D breast = system: T-47D breast
# SNB-19 CNS = system: SNB-19 CNS
# SK-OV-3 ovarian = system: SK-OV-3 ovarian
# MALME-3M melanoma = system: MALME-3M melanoma
Compound,TGI (SW-620 colon),TGI (UACC-257 melanoma),TGI (HL-60(TB) leukemia),TGI (K-562 leukemia),TGI (UACC-62 melanoma),TGI (SR leukemia),TGI (MOLT-4 leukemia),TGI (OVCAR-5 ovarian),TGI (HCT-116 colon),TGI (COLO 205 colon),TGI (786-0 renal),TGI (HOP-92 NSCLC),TGI (T-47D breast),TGI (SNB-19 CNS),TGI (SK-OV-3 ovarian),TGI (MALME-3M melanoma)
C#C[C@]1(O)CC[C@H]2[C@@H]3CCC4=C/C(=N/NC(=O)c5cccc6cc7ccccc7nc56)CC[C@@H]4[C@H]3CC[C@@]21CC,> 100 µM,> 100 µM,> 100 µM,> 100 µM,> 100 µM,> 100 µM,> 100 µM,> 100 µM,> 100 µM,> 100 µM,> 100 µM,> 100 µM,66.2 µM,> 100 µM,> 100 µM,
Oc1cc(-c2ccc(Cl)cc2)cn2c1nc1ccccc12,> 100 µM,> 100 µM,> 100 µM,> 100 µM,> 100 µM,,,,> 100 µM,> 100 µM,> 100 µM,> 100 µM,> 100 µM,> 100 µM,> 100 µM,> 100 µM
CC1=C(C)C1[N+](=O)[O-],> 100 µM,> 100 µM,> 100 µM,> 100 µM,> 100 µM,,> 100 µM,> 100 µM,> 100 µM,> 100 µM,> 100 µM,> 100 µM,> 100 µM,> 100 µM,> 100 µM,> 100 µM
O=[N+]([O-])c1cc2c(c([N+](=O)[O-])c1)NCc1ccccc1O2,> 100 µM,> 100 µM,> 100 µM,,> 100 µM,> 100 µM,> 100 µM,> 100 µM,> 100 µM,> 100 µM,> 100 µM,> 100 µM,> 100 µM,,,> 100 µM
COc1cccc(-c2nc3ccccc3c(=O)[nH]2)c1OC,> 100 µM,> 100 µM,,,> 100 µM,> 100 µM,> 100 µM,> 100 µM,> 100 µM,> 100 µM,> 100 µM,,> 100 µM,> 100 µM,> 100 µM,> 100 µM
COc1cc([C@H]2CC(=O)C[C@H](c3cc(OC)c(OC)c(OC)c3)C23C(=O)c2ccccc2C3=O)cc(OC)c1OC,> 100 µM,> 100 µM,,> 100 µM,> 100 µM,> 100 µM,> 100 µM,> 100 µM,63.7 µM,> 100 µM,> 100 µM,> 100 µM,> 100 µM,> 100 µM,> 100 µM,> 100 µM
CN1CCCOC(c2ccc([N+](=O)[O-])cc2)O1 (configuration not stated),> 100 µM,> 100 µM,,> 100 µM,> 100 µM,> 100 µM,> 100 µM,> 100 µM,> 100 µM,> 100 µM,> 100 µM,> 100 µM,> 100 µM,> 100 µM,> 100 µM,> 100 µM
CC(=O)N1C(NN(C)C)CCN1c1ccccc1 (configuration not stated),> 10 µM,> 10 µM,> 10 µM,> 10 µM,> 10 µM,> 10 µM,> 10 µM,,,> 10 µM,> 10 µM,> 10 µM,> 10 µM,,> 10 µM,> 10 µM
